“And” between values parts separate entries of the source, which are not always exact repeats. Equal entries are not always repeated. Where two headings read alike, the source gives them in different places.
How the values were obtained:
Solubility = format: physicochemical; details: Table I
Histamine (H1) = Histamine (H1) (Homo sapiens, UniProt P35367); experiment: Histamine (H1) Binding Activity (Table I)
in vitro = details: human, hepatocytes
[1] = Pharmacokinetics and oral bioavailability in rats; format: in vivo; details: for half-life: read-out: T ½ (converted); for Vd: read-out: Vss; for bioavailability: read-out: F (oral bioavailability)
Experimental: For oral doses, 5 mg/kg if DPH-equivalent were used. […] Animals were dosed in triplicate by bolus injection to the femoral vein (IV) or oral gavage (PO), and whole blood was collected from the carotid artery from all animals at the appropriate time points for preparation of plasma samples. Quantitation of test article in plasma was performed by LC-MS/MS.

[2] = system: histamine-induced wheal and flare; experiment: Wheal and flare further study, intravenous infusion; format: in vivo, rats; details: for antihistamine efficacy (wheal size): IV infusion, rats
Experimental: Briefly, rats received a continuous infusion via the jugular vein catheter for 60 minutes. […] Sixty minutes after the start of the infusion period, the rats were given four (4) interdermal (ID) injections of histamine ([…] in saline; dose 50 μL at 10 μg/rat). […] Twenty minutes after the histamine injections a caliper (Fowler Sylvac Ultra-Cal Mark III) was used to measure the wheal and flare (the diameter of the blue area). Two measurements of the diameter of the blue area at the site of histamine injection were made at 90 degrees from one another. […] Blood samples collected via cardiac puncture were used for diphenhydramine quantitation. The blood samples were placed in vacutainer tubes containing K2 EDTA. The rats were exsanguinated and the brain was rinsed in ice cold saline, wrapped in foil and frozen. The brain and the plasma samples were analyzed for drug content.

[3] = target: human recombinant H1 histamine receptors (Homo sapiens, UniProt P35367); experiment: biochemical
Experimental: (Caliper Life Sciences, Hopkinton, Mass.). […] This study was performed using duplicate samples per data point (n=2).

[4] = Blood-brain barrier penetration, brain:plasma ratio after tail vein injection; details: for Fold change (vs DPH): brain concentration, adjusted for DPH molar dose twice that of conjugates; for Kp at 1 h / concentration at 1 h: rat, intravenous; for Kp at 1 h: brain and plasma
Experimental: The four compounds were tested following intravenous injection to the tail vein in rats.
After ensuring a single rat remained viable following a test dose, the rats (4 per condition) were dosed by tail vein injection and were sacrificed one hour later. Blood was collected by cardiac puncture, and brain tissue was collected. Plasma was prepared and brain tissue homogenized to enable quantitation of drug content by LC-MS/MS.
Concentrations of each compound were determined and brain:plasma ratios calculated accordingly.

[5] = target: T1, cloned hERG channels stably expressed in HEK cells (Homo sapiens, UniProt Q12809); experiment: hERG current inhibition, electrophysiology
[6] = target: T1, cloned hERG channels stably expressed in HEK cells
guinea pig hearts [7] = experiment: In vitro safety pharmacology, guinea pig hearts; details: rat and guinea pig preparations responded similarly
hepatocytes = experiment: Hepatocyte metabolism, dog
rat hepatocyte = experiment: Rat hepatocyte incubation
[8] = system: histamine-induced wheal and flare response; format: in vivo; details: for percent decrease in the wheal response (change in wheal size): 20 minute time-point, 0.1-0.3 mg/kg dose range
Experimental: Wheal and flare (erythema) experiments were performed in rats in order to measure in vivo activity of PEG-diphenhydramine. Intradermal injection of histamine produces a “wheal and flare” response in the skin as a result of histamine-induced mast cell degranulation, which is prevented by treatment with effective antihistamines.
Histamine was prepared from histamine diphosphate salt at 1 mg/mL (3.26 mM) in PBS, and was administered by intradermal injection 2.5 minutes after IV injection of the test article to the tail vein. At 5, 10, 20, 30 and 60 minutes post-injection, wheal sizes were measured using calipers and areas calculated (width×length, mm^2). Flare responses were measured by eye, and were graded on a scoring system of 1 (least significant)-5 (most severe).

human hepatocytes = experiment: Metabolic stability in human hepatocytes; details: for metabolic breakdown / hepatic intrinsic clearance compared with diphenhydramine: human, hepatocytes
[9] = system: spontaneously beating rat hearts; experiment: In vitro safety pharmacology, spontaneously beating rat hearts
Text: The objective of this study was to determine the potential effects of escalating concentrations of conjugates on electrophysiological (PQ, QRS, RR, QT, QTc), and mechanical (dLVP/dtmax and dLVP/dtmin) properties in spontaneously beating rat hearts.

guinea pig hearts [10] = system: guinea pig hearts
intact rat brain = details: in vivo, 30 seconds, 20 μM
[11] = rat, plasma, IV, 1 mg/kg DPH-equivalent
[12] = rat, plasma, IV, 1 mg/kg DPH-equivalent, read-out: Cmax
[13] = rat, plasma, oral 5 mg/kg vs IV 1 mg/kg
[14] = rat, plasma, oral, 5 mg/kg DPH-equivalent
[15] = rat, plasma, oral, 5 mg/kg DPH-equivalent, read-out: Cmax
[16] = rat, plasma, oral, 5 mg/kg DPH-equivalent, read-out: Tmax
[17] = one hour after tail vein injection, rats
[18] = Ki ratio, repeated assay (asterisk), n=3
[19] = repeated assay (asterisk), n=3 samples per data point

T1 sequence (Q12809 whole entry): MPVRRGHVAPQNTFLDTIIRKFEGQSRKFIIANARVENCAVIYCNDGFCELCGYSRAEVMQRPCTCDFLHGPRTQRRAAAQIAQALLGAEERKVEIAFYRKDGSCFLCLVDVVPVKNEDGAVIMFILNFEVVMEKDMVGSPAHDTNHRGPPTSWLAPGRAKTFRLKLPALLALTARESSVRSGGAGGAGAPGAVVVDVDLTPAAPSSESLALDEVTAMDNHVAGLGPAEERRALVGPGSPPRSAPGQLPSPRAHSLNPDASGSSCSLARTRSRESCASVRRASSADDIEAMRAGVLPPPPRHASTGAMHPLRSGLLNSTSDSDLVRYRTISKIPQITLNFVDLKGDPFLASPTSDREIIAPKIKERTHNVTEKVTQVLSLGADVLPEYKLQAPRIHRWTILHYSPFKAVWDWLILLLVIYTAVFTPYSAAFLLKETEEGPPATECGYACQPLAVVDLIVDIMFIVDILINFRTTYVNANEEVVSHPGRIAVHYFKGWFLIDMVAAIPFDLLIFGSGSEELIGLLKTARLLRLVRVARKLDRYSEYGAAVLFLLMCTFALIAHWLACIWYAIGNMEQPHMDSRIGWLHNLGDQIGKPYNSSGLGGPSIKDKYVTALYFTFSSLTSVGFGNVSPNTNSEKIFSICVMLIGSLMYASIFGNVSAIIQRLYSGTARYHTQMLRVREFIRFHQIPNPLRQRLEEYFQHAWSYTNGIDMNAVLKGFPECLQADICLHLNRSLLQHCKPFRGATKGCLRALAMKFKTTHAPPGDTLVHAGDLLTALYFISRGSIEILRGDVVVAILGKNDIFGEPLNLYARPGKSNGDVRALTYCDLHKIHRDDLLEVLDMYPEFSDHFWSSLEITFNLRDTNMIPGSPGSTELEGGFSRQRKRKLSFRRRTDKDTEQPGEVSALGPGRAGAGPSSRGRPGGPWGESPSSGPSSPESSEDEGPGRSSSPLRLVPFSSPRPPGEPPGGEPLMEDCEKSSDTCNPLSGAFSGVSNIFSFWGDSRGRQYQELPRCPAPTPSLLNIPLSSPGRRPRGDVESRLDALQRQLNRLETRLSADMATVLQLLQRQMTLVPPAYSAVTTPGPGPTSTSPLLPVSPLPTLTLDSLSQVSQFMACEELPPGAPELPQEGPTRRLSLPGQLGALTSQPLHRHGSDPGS
Sequence of Histamine (H1) (P35367 whole entry): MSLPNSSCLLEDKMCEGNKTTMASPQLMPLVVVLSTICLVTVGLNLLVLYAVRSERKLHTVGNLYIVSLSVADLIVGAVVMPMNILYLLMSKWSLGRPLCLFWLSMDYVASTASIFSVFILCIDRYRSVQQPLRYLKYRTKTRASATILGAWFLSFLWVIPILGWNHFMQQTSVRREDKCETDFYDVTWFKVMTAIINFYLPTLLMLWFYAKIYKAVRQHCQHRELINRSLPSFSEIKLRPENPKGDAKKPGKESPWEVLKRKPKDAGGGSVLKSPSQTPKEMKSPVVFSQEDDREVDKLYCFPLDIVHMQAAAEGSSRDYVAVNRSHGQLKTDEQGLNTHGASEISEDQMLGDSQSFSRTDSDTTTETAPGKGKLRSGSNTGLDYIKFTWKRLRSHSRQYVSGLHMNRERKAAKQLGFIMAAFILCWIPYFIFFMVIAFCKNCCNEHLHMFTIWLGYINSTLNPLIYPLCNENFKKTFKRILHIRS
Sequence of human recombinant H1 histamine receptors (P35367 whole entry): as above

COCCOCCOCCOCCOCCN1CCN(C(c2ccccc2)c2ccc(Cl)cc2)CC1 (stereo not drawn) [PEG3-Hydroxyzine, mPEG3-Hydroxyzine]
Solubility (Solubility): soluble
IC50 (Histamine (H1); read-out: IC50): 105 nM

COCCOCCOCCOCCOCCOCCOCCN(C)CCOC(c1ccccc1)c1ccccc1 [mPEG(7)-N-Diphenhydramine, mPEG7-N-diphenhydramine]
half-life (in vitro): 88.4 min
AUC(0-inf) [1, 11]: 410 ng·h/mL
clearance [1, 11]: 78.4 mL/min/kg
Cmax [1, 12]: 882 ng/mL
half-life [1, 11]: 25.8 min
Vd [1, 11]: 2.07 L/kg
bioavailability [1, 13]: 1.3%
AUC(0-inf) [1, 14]: 26.6 ng·h/mL
Cmax [1, 15]: 41.3 ng/mL
half-life [1, 14]: 28.2 min
Tmax [1, 16]: 15 min
antihistamine efficacy (wheal size) [2]: no efficacy in concentration range tested
Fold vs parent [3]: 20.1 and 28.7
Ki [3]: 605 nM and 454 nM
IC50 (Histamine (H1)): 1730 nM
Fold change (vs DPH) [4]: 26
Kp at 1 h [4]: 0.2 to 1
concentration at 1 h ([4]; brain): 106 ± 27.1 ng/g
concentration at 1 h ([4]; plasma): 545 ± 57.9 ng/mL
IC50 [5]: 13000 nM
IC50 fold lower [6]: 4 fold

C=C[C@H]1C[N@@]2CC[C@H]1C[C@@H]2[C@@H](O)c1ccnc2ccc(OC)cc12 [quinidine]
QT (guinea pig hearts [7]): lengthened dramatically

COCCOCCOCCOCCOCCOCCOCCN1CCN(C(c2ccccc2)c2ccc(Cl)cc2)CC1 (stereo not drawn) [PEG5-Hydroxyzine, mPEG5-Hydroxyzine]
Solubility (Solubility): soluble
IC50 (Histamine (H1); read-out: IC50): 76.7 nM

COCCOCCOCCOCCOCCOCCN(C)CCOC(c1ccccc1)c1ccccc1 [mPEG(6)-N-Diphenhydramine, mPEG6-N-diphenhydramine]
hepatic intrinsic clearance compared with diphenhydramine (hepatocytes): faster than that of the parent diphenhydramine
AUCinf ([1]; IV, 1 mg/kg DPH-equivalent): 405 ng·h/mL
CL ([1]; IV, 1 mg/kg DPH-equivalent): 73.32 mL/min/kg
Cmax ([1]; IV, 1 mg/kg DPH-equivalent): 790 ng/mL
T ½ ([1]; IV, 1 mg/kg DPH-equivalent): 22.8 min
Vss ([1]; IV, 1 mg/kg DPH-equivalent): 1.91 L/kg
F (oral bioavailability) ([1]; oral 5 mg/kg vs IV 1 mg/kg): 2.4%
AUCinf ([1]; oral, 5 mg/kg DPH-equivalent): 49.1 ng·h/mL
Cmax ([1]; oral, 5 mg/kg DPH-equivalent): 81.9 ng/mL
T ½ ([1]; oral, 5 mg/kg DPH-equivalent): 23.4 min
Tmax ([1]; oral, 5 mg/kg DPH-equivalent): 15 min
metabolic breakdown compared with diphenhydramine (rat hepatocyte): slower metabolic breakdown than diphenhydramine
flare response (visual scoring) ([8]; 0.03 mg/kg): flare responses begin to return
wheal size ([8]; 0.03 mg/kg): did not produce a detectable change in wheal size
toxicity in first animal dosed ([8]; 1 mg/kg IV, rat): suffered convulsions and died
wheal size ([8]; 0.1, 0.3 mg/kg): reduced the size of the wheal compared with control injection
percent decrease in the wheal response (change in wheal size) [8]: approximately 25%
flare response (visual scoring) ([8]; highest concentrations): no detectable flare
Half-Life (t1/2) (hepatocytes) (human hepatocytes; human hepatocytes, initial rate of loss of parent, n=1): 122.9 min
metabolic breakdown / hepatic intrinsic clearance compared with diphenhydramine (human hepatocytes): faster than that of the parent diphenhydramine
Brain concentration [4, 17]: 45.1 ± 4.4 ng/g
Plasma concentration [4, 17]: 237.0 ± 41.1 ng/mL
IC50 ([5]; read-out: IC50 hERG channel, hERG current, HEK cells): 3790 nM

COCCOCCOCCOCCOCCN(C)CCOC(c1ccccc1)c1ccccc1 [mPEG5-N-diphenhydramine]
half-life (in vitro): 44.2 min
AUC(0-inf) [1, 11]: 391 ng·h/mL
clearance [1, 11]: 69.5 mL/min/kg
Cmax [1, 12]: 821 ng/mL
half-life [1, 11]: 19.8 min
Vd [1, 11]: 1.98 L/kg
bioavailability [1, 13]: 1.5%
AUC(0-inf) [1, 14]: 29.4 ng·h/mL
Cmax [1, 15]: 53.6 ng/mL
half-life [1, 14]: 22.8 min
Tmax [1, 16]: 15 min
antihistamine efficacy (wheal size) [2]: demonstrated efficacy, but toxicity occurs at same concentrations
fold weaker than diphenhydramine ([2]; efficacy at diphenhydramine-equivalent target plasma concentrations): ≥ 10 fold
dromotropism (PQ and QRS) [9]: greater negative dromotropism (lengthening of PQ and QRS) than diphenhydramine
effect on coronary smooth muscle [9]: vasodilatory effect
ventricular repolarization (QT and QTc) [9]: retard ventricular repolarization (QT and QTc) slightly more than diphenhydramine or quinidine
cardiodeceleration ([9]; 10^−5 M): greater cardiodeceleration
inotropism and lusitropism ([9]; 10^−5 M): striking positive inotropism and lusitropism
Coronary perfusion (guinea pig hearts [10]): increased dramatically
QRS and PQ durations (guinea pig hearts [10]; guinea pig): increase only for 10^−5 M concentration
Fold vs parent [3]: 11.1 and 14.6
Ki [3]: 333 nM and 230 nM
metabolic breakdown / hepatic intrinsic clearance compared with diphenhydramine (human hepatocytes): moderately faster metabolic breakdown than diphenhydramine
IC50 (Histamine (H1)): 600 nM
Fold change (vs DPH) [4]: 28
Kp at 1 h [4]: 0.2 to 1
concentration at 1 h ([4]; brain): 97.9 ± 32.9 ng/g
concentration at 1 h ([4]; plasma): 415 ± 78.7 ng/mL

CN(C)CCOC(c1ccccc1)c1ccccc1 [Diphenhydramine, reference compound]
antihistamine efficacy (wheal size) [2]: dose dependent reduction in wheal size
flare response (visual scoring) ([8]; 0.01 mg/kg): protective effect of diphenhydramine begins to decrease
flare response (visual scoring) ([8]; 0.03 mg/kg): still suppresses the response effectively
percent decrease in the wheal response (change in wheal size) [8]: approximately 40%
wheal size ([8]; all doses tested): clear dose-dependent reduction
flare response (visual scoring) ([8]; highest concentrations): no detectable flare

COCCOCCOCCOCCOCCOCCN(CCOC(c1ccccc1)c1ccccc1)CCOC(c1ccccc1)c1ccccc1 [mPEG6-N-(Diphenhydramine)2, mPEGn-N-(diphenhydramine)2]
IC50 (Histamine (H1); read-out: IC50): 6500 nM

COCCOCCOCCN1CCN(C(c2ccccc2)c2ccc(Cl)cc2)CC1 (stereo not drawn) [PEG1 -Hydroxyzine, mPEG1-Hydroxyzine]
Solubility (Solubility): soluble
IC50 (Histamine (H1); read-out: IC50): 70.3 nM

OCCOCCN1CCN(C(c2ccccc2)c2ccc(Cl)cc2)CC1 (stereo not drawn) [Hydroxyzine, reference compound]
Normalized Brain Uptake Rate (Mean ± SD) (intact rat brain): 355.89 ± 59.02 pmole/gm brain/sec

Cc1cc(=O)n(-c2ccccc2)n1C [Antipyrine]
Normalized Brain Uptake Rate (Mean ± SD) (intact rat brain): 17.4 ± 5.7 pmole/gm brain/sec

COCCOCCOCCOCCN(C)CCOC(c1ccccc1)c1ccccc1 [mPEG(4)-N-Diphenhydramine, mPEG4-N-diphenhydramine]
Fold vs parent [3, 18]: 12.7
Ki [3, 19]: 200 nM

COCCOCCOCCOCCOCCNC(=O)COCCN1CCN(C(c2ccccc2)c2ccc(Cl)cc2)CC1 (stereo not drawn) [PEG5-Cetirizine, mPEG5-Cetirizine]
Solubility (Solubility): soluble

COCCOCCOCCN(C)CCOC(c1ccccc1)c1ccccc1 [mPEG(3)-N-Diphenhydramine, mPEG3-N-diphenhydramine]
Fold vs parent [3, 18]: 7.8
Ki [3, 19]: 124 nM

COCCOCCOCCOCCOCCOCCNCCOC(c1ccccc1)c1ccccc1 [mPEG(6)-NH-Diphenhydramine, mPEG6-NH-diphenhydramine]
Fold vs parent ([3]; Ki ratio, first run, n=2): 62.5
Ki ([3]; first run, n=2 samples per data point): 1890 nM
IC50 (Histamine (H1); read-out: IC50): 4120 nM
